Reference: patent US10710996B2, “Pyrido-azaheterecydic compound and preparation method and use thereof” (SHANGHAI INSTITUTE OF MATERIA MEDICA, CHINESE ACADEMY OF …, priority 2015, dated 2020)

Assays:
c-Met kinase = target: T1, c-Met kinase (Homo sapiens, UniProt P08581); assay: Inhibitory effect on c-Met kinase activity at molecular level (ELISA); assay type: biochemical;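 note: recombinant c-Met kinase domain with 5 µM ATP, 1 h at 37 °C, substrate phosphorylation detected by anti-phosphotyrosine PY99 ELISA at 490 nm versus DMSO negative control, ATP-free wells as blank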
T1 construct: c-Met kinase domain recombinant protein diluted with 49 μL of the reaction buffer was added

EBC-1 cells = assay: Inhibition of c-Met-mediated EBC-1 cell proliferation (SRB staining); assay type: cell-based; settings: Homo sapiens, 72 hours treatment
Experimental: The inhibitory effect of the compounds on the growth of non-small cell cancer EBC-1 cell (a cell line in which Met is continually activated due to the amplification of MET gene, and is a Met-dependent tumor cell line) was measured by sulforhodamine B (SRB) staining assay. A certain amount of EBC-1 cells in their logarithmic growth phase were seeded in 96-well plates at 90 μL per well and cultured overnight, then 10 μL of different concentrations of compounds or solvent control were added thereto, three wells for each concentration. After treated by the compound for 72 hours, the adherent cells were removed of culture medium and fixed with 10% (w/v) trichloroacetic acid (100 μL/well) at 4° C. for 1 hr followed by rinsing with distilled water five times. After drying at room temperature, 100 μL of SRB solution (dissolved in 1% glacial acetic acid at 4 mg/mL) was added to each well to incubate and stain the cells for 15 min at room temperature, then unbound SRB was washed off with 1% glacial acetic acid for five times. After drying at room temperature, 100 μL of 10 mM Tris solution was added to each well. The optical density (OD value) at 515 nm was read on a VERSMax microplate reader. […] The experiment was repeated twice. The IC50 data was calculated as a range based on the test results of concentrations set in the initial screening test.

T1 sequence (P08581 1078-1345 limits assumed): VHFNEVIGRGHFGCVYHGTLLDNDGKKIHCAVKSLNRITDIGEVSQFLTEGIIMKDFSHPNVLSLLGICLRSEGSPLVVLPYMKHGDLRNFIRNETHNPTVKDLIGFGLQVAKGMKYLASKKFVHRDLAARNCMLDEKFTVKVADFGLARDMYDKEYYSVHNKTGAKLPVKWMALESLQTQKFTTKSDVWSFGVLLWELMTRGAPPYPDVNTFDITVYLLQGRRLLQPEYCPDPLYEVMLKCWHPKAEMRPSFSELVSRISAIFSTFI

Structure (SMILES) | IC50 (c-Met kinase) [nM] | IC50 (EBC-1 cells) [nM]
CN1CCC(COc2cc3nccc(Oc4ccc(NC(=O)C5(C(=O)Nc6ccc(F)cc6)CC5)cc4F)c3cn2)CC1 [Compound 9S, N-(3-fluoro-4-((7-((1-methylpiperidin-4-yl)methoxy)-1,6-naphthyridin-4-yl)oxy)phenyl)-N-(4-fluorophenyl) cyclopropyl-1,1-dicarboxamide] | 1 to 10 | 10 to 100
O=C1COCCN1CCOc1cc2nccc(Oc3ccc(NC(=O)C4(C(=O)Nc5ccc(F)cc5)CC4)cc3F)c2cn1 [Compound 37S, N-(3-fluoro-4-((7-(2-(3-oxomorpholino)ethoxy)-1,6-naphthyridin-4-yl)oxy)phenyl)-N-(4-fluorophenyl) cyclopropyl-1,1-dicarboxamide] | 1 to 10 | 10 to 100
COc1cc2nccc(Oc3ccc(NC(=O)C4(C(=O)Nc5ccc(F)cc5)CC4)cc3F)c2cn1 [Compound 3S, N-(4-((7-methoxy-1,6-naphthyridin-4-yl)oxy)-3-fluorophenyl)-N-(4-fluorophenyl)cyclopropyl-1,1-dicarboxamide] | 1 to 10 | 100 to 1000
O=C(Nc1ccc(F)cc1)C1(C(=O)Nc2ccc(Oc3ccnc4nc(OCCN5CCOCC5)cnc34)c(F)c2)CC1 [Compound 60S, N-(3-fluoro-4-((3-(2-morpholinoethoxy)pyrido[2,3-b]pyrazin-8-yl)oxy)phenyl)-N-(4-fluorophenyl)cyclopropyl-1,1-dicarboxamide] | 10 to 100 | 1000 to 10000
O=C(Nc1ccc(F)cc1)C1(C(=O)Nc2ccc(Oc3ccnc4ncc(NCCCN5CCOCC5)nc34)c(F)c2)CC1 [Compound 63S, N-(3-fluoro-4-((2-((3-morpholinopropyl)amino)pyrido[2,3-b]pyrazin-8-yl)oxy)phenyl)-N-(4-fluorophenyl) cyclopropyl-1,1-dicarboxamide] | 1 to 10 | 1000 to 10000
O=C(Nc1ccc(F)cc1)C1(C(=O)Nc2ccc(Oc3ccnc4ncc(N5CCOCC5)nc34)c(F)c2)CC1 [Compound 58S] | 100 to 1000 | 1000 to 10000
O=C(Nc1ccc(F)cc1)C1(C(=O)Nc2ccc(Oc3ccnc4cc(-c5ccncc5)ncc34)c(F)c2)CC1 [Compound 46S, N-(3-fluoro-4-((7-(pyridin-4-yl)-1,6-naphthyridin-4-yl)oxy)phenyl)-N-(4-fluorophenyl)cyclopropyl-1,1-dicarboxamide] | 1 to 10 | 100 to 1000
O=C(Nc1ccc(F)cc1)C1(C(=O)Nc2ccc(Oc3ccnc4cc(-c5cn[nH]c5)ncc34)c(F)c2)CC1 [Compound 39S, N-(4-((7-(1H-pyrazol-4-yl)-1,6-naphthyridin-4-yl)oxy)-3-fluorophenyl)-N-(4-fluorophenyl)cyclopropyl-1,1-dicarboxamide] | 1 to 10 | 1 to 10
CC(C)n1cc(-c2cc3nccc(Oc4ccc(NC(=O)C5(C(=O)Nc6ccc(F)cc6)CC5)cc4F)c3cn2)cn1 [Compound 41S, N-(3-fluoro-4-((7-(1-isopropyl-1H-pyrazol-4-yl)-1,6-naphthyridin-4-yl)oxy)phenyl)-N-(4-fluorophenyl) cyclopropyl-1,1-dicarboxamide] | 1 to 10 | 1 to 10
Cn1cc(-c2cc3nccc(Oc4ccc(NC(=O)c5c[nH]cc(-c6ccc(F)cc6)c5=O)cc4F)c3cn2)cn1 [Compound 54S, N-(3-fluoro-4-((7-(1-methyl-1H-pyrazol-4-yl)-1,6-naphthyridin-4-yl)oxy)phenyl)-5-(4-fluorophenyl)-4-oxo-1,4-dihydropyridine-3-carboxamide] | 1 to 10 | 10 to 100
O=C(Nc1ccc(F)cc1)C1(C(=O)Nc2ccc(Oc3ccnc4cc(-c5ccc(F)c(F)c5)ncc34)c(F)c2)CC1 [Compound 49S, N-(3-fluoro-4-((7-(3,4-difluorophenyl)-1,6-naphthyridin-4-yl)oxy)phenyl)-N-(4-fluorophenyl)cyclopropyl-1,1-dicarboxamide] | 1 to 10 | 10 to 100
